Laboratory results published in patent publication US20220163539A1, “NLRP3 INFLAMMASOME INHIBITION” (Inflazome Limited, priority 2019, published 2022).

Tests used:
[1] = biological target: T1, NLRP3 in NLRP3 over-expressing HEK293 cell lysate supernatants (Homo sapiens, UniProt Q96P20); assay: Radioligand binding assay with [3H]-MCC7840, gel filtration; conditions: 200 nM [3H]-MCC7840, 700 μg protein, 4 hrs at RT; minimum of curve fit constrained; read-out: estimated IC50, competition with [3H]-MCC7840
T1 construct: expressed in transfected cells; host or cells: HEK293
Protocol: As NLRP3 is a cytoplasmic protein a conventional filtration binding assay method could not be used to separate free vs bound radiolabel from cell lysates.
Cell pellets were defrosted over ice and diluted one in two with binding buffer. […] Supernatant was removed and stored at −20° C. Protein determination was performed on these samples using the Pierce BCA kit following the manufacturer's instructions.
Binding buffer volume was dependent on the volume of supernatant used in the assay. Samples were combined together and incubated, with shaking, for 4 hrs @ room temperature.
Briefly, the PD MultiTrap plates were spun down at room temperature (RT), 800 g, for 1 minute to remove the storage buffer. They were washed five times with 300 μl/well binding buffer, 800 g, RT for 1 minute.
80 μl of sample was added per well, spun down at 400 g for 1 minute. 50 μl of the flow through was added to 145 μl Microscint-20 in Optiplates. The plate was shaken for approximately 30 minutes at RT prior to reading in a Perkin Elmer TopCount. Data was analysed using GraphPad Prism.
The specific binding was determined by subtracting the non-specific binding from the total binding.

[2] = system: IL-1β release from THP-1 cells; assay: IL-1β release assay in THP-1 cells (LPS and nigericin stimulation); conditions: Homo sapiens, THP-1, read-out: IC50 for inhibition of release of IL-1β from THP-1 cells

T1 sequence (Q96P20 whole entry): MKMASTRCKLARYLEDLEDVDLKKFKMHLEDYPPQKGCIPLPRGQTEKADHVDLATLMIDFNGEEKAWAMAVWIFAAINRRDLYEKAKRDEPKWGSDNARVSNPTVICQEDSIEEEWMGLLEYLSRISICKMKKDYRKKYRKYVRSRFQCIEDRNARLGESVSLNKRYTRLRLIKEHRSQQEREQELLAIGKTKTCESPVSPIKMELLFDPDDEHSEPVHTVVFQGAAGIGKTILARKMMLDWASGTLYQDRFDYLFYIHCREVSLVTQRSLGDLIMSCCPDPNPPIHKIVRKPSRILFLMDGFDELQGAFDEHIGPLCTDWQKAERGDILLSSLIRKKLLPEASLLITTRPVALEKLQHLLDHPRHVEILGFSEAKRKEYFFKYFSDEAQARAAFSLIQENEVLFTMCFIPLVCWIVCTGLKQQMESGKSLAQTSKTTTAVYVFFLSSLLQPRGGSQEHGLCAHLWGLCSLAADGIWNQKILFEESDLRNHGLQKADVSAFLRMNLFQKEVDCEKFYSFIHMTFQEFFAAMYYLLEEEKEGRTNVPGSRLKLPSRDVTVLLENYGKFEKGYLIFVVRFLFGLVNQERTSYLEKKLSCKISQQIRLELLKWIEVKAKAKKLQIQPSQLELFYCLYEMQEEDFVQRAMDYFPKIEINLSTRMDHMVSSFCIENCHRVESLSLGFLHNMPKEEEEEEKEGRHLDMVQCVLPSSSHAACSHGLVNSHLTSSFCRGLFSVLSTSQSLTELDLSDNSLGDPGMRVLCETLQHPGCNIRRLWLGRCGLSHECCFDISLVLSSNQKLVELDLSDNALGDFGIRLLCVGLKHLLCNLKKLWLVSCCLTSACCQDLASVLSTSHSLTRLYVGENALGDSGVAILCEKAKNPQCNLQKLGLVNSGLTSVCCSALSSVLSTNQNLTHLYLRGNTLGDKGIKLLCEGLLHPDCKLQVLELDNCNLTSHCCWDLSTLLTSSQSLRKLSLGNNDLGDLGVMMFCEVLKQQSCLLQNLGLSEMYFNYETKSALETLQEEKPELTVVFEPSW

| IC50 [2] [µM] | Structure (SMILES) | IC50 [1] [µM] |
| --- | --- | --- |
| – | Nc1ncnc2c1ncn2[C@@H]1O[C@H](COP(=O)(O)OP(=O)(O)OP(=O)(O)O)[C@@H](O)[C@H]1O [ATP] | 75000 |
| 0.11 | CC(C)n1ccc(S(=O)(=O)NC(=O)Nc2c3c(cc4c2CCC4)CCC3)n1 [MCC7840] | – |
| 0.027 | CC(C)(O)c1coc(S(=O)(=O)NC(=O)Nc2c3c(cc4c2CCC4)CCC3)c1 [MCC950] | – |
